# Entries after “also recorded” stand apart in the source; their conditions may differ.
# What was measured:
# [1] = test system: 3-4 instar Aedes aegypti larvae; assay: Mosquito larvicide bioassay; assay type: in vivo
# Description: Mosquito larvicide bioassays were performed by introducing various concentrations of test compounds (pyrone derivatives and rotenone) into acetone at various concentrations. 200 uL of these solutions were added to individual cups containing 10, 3-4 instar Aedes aegypti larvae and 25 mL of DI water. 2 mg of Tetramin™ was provided to each cup as a food source. […] Ataxia was used as the indicator of larval mortality. At least 5 concentrations were used which caused between 10 and 90% mortality. LC50 values were calculated using a PROC PROBIT model in SAS 9.4.
# German roaches = assay: Spray-cup testing, German roaches (FIG. 3b); assay type: in vivo, German roach; conditions: Formula 13 2.5% w/v in water vs thymol 2.5% or 10% w/v
# Description: (§1) 10 adults of various arthropod species used for this characterization were placed into 8 oz. ice cream cups with tulle placed over the top to prevent the escape of arthropods from the container. Test formulations were added to spray bottles ([…]™) and applied at the same distance and spray number to eliminate variation between manufacturer spray bottles. For all experiments, spray bottles were set to mist in order to prevent excess formulation from accumulating in the cups. […] Mortality was recorded at 1 min, 5 min, 10 min, 15 min, 30 min, 4 hours, and 8 hours for each replicate. A minimum of 3 replicates of 10 arthropods/cup/replicate were performed for each formulation. Data was modeled using a logarithmic regression to show the speed-to-kill of each formulation and highlight differences among treatment groups. Different spray amounts were used for each arthropod, depending on susceptibility, e.g.:
# German roaches=10 sprays, 3 in […]
# maize weevils = assay: Spray-cup testing, maize weevils (FIG. 3c); assay type: in vivo, maize weevil; conditions: Formula 13 2.5% w/v in water vs thymol 2.5% or 10% w/v
# Description: as §1
# Maize weevils=8 sprays, 3 in […]
# soybean aphids = assay: Leaf spray/dip test, soybean aphids (FIG. 4a); assay type: in vivo, soybean aphid; conditions: soybean aphids on dipped soybean leaves, 48 hours
# Description: (§2) Soybean leaves were removed from a previously uninfested plant and dipped in solution containing water, various concentrations of compounds to be screened, and 0.5% industrial emulsifier. Leaves were allowed to air dry for 30 minutes before the beginning of the assay to assure excess formulation was not present on the treated leaves. Ten two-spotted spider mites or ten soybean aphid adults were gently placed on the top surface of the treated leaves. A minimum of three replicates were performed for each formulation tested in this experiment. Mortality of aphids or spider mites was recorded at 48 hours after their introduction to treated leaves. All treatments were compared to a water+emulsifier control and a thymol+emulsifier control. Data was presented as the average mortality across all replicates along with the standard error of the mean.
# two-spotted spider mites = assay: Leaf spray/dip test, spider mites (FIG. 4b); assay type: in vivo, two-spotted spider mite; conditions: spider mites on dipped soybean leaves, 48 hours
# Description: as §2
# [2] = test system: adult female Aedes aegypti; assay: Topical combination of Formula 13 with synthetic insecticides (FIGS. 6-9); assay type: in vivo
# Description: A low-dose concentration of Formula 13 (500 μg/mL) was applied in combination with chlorfenapyr (75 μg/mL), dibrom (10 μg/mL), thiamethoxam (100 μg/mL), and permethrin (2.5 μg/mL) to the pronotum of adult female Aedes aegypti in 0.2 μL of acetone. These concentrations were chosen as they produced little-to-no mortality at 24 hours after application. Knockdown (immobilization) was recorded at 1 hour after application and mortality was recorded at 24, 48, and 72 hours after initial application. These applications were run in parallel to a topical application of a combined mixture of 500 μg/mL Formula 13 and 75 μg/mL of chlorfenpayr to the pronotum of adult female mosquitoes. For this experiment, total of 25 mosquitoes were treated within each replicate, with a minimum of 3 replicates utilized for each treatment. Synergism was defined as the higher percentage mortality in the insecticidal combination of both Formula 13 and chlorfenapyr compared to each individual component applied by itself.
# adult house flies = assay: Topical application of pogostone derivatives with PBO or plant essential oil on house flies; assay type: in vivo, house fly; conditions: house flies
# Description: Combinations of select pogostone derivatives with select concentrations of PBO or plant essential oils was performed. […] Synergists were applied as a subsequent application directly after the application of pogostone derivatives. Concentrations of synergists (plant oils or PBO) were chosen that produced no mortality at 24 hours when applied alone.
# To assess the ability of PBO to increase the toxicity of a wide variety of pogostone derivatives, PBO and the pogostone derivatives were applied in combination to the pronotum of house flies.
# Finally, the potential of plant essential oils to synergize the effect of Formula 30 was assessed.
# [3] = test system: Giant foxtail (Setaria faberi); assay: Soil drench herbicidal test, foxtail; assay type: in vivo; conditions: for % mortality: Foxtail, Rep 1 and 2
# Description: (§3) Dandelion (Taraxacum officinale) seeds were obtained from the Department of Agronomy at Iowa State University. Individual seeds were sown for each pot (6″ wide×4.5″ deep) with approximately 800 mL of soil for each plan. Only plants that germinated were used for the study. Plants were treated 1-2 weeks post emergence. Plants were watered every 2-3 days as needed. Giant foxtail (Setaria faberi) seeds were obtained from the Department of Agronomy at Iowa State University. Three seeds were sown for each pot (6″ wide×4.5″ deep) with approximately 800 mL of soil for each plan. Only plants that germinated were used for the study. Plants were treated 1-2 weeks post emergence. Plants were watered every 2-3 days as needed.
# Formulations of the various active ingredients were created using the disclosed pogostone derivatives and Triton-X 100 to aid in the solvation of the active ingredient. Formulations consisted of 0.5% active ingredient by weight. […] 40 mL of formulation (either […] active ingredient) was applied to each pot containing approximately 3-5 plants per pot at 2-3 weeks after emergence. Observations were performed 3 days and 2 weeks after soil drench to determine the effects of the treatments on the various types and stages of plants. Phytotoxicity is reported as percentage of total plants treated compared to a control treatment that was exposed to a similar formulation (without the active monoterpenoid derivatives). Technical grade 2,4-dichlorophenoxyacetic acid (2,4-D) was used as the commercial comparison for phytotoxicity. For its solvation, potassium hydroxide was introduced at a 1:1 molar ratio with 2,4-D to ensure this molecule would adequately dissolve in water.
# [4] = test system: Dandelion (Taraxacum officinale); assay: Soil drench herbicidal test, dandelion; assay type: in vivo; conditions: 40 mL of 0.5% soil drench, FIG. 12; words
# Description: as §3
# Formulations of the various active ingredients were created using the disclosed pogostone derivatives and Triton-X 100 to aid in the solvation of the active ingredient. Formulations consisted of 0.5% active ingredient by weight. […] 40 mL of formulation ([…] active ingredient) was applied to each pot containing approximately 3-5 plants per pot at 2-3 weeks after emergence. Observations were performed 3 days and 2 weeks after soil drench to determine the effects of the treatments on the various types and stages of plants. […]
# [5] = test system: two-spotted spider mites, soybean aphids, maize weevils, German cockroaches, and European corn borers; assay: Screen of Formula 13 against other arthropod pest species; assay type: in vivo; conditions: words
# house flies = assay: Topical application on house flies; conditions: House Fly Toxicity; topical
compound,measurement,setting,value
CC(C)CCC(=O)c1c(O)c2ccccc2oc1=O [Formula 13],LC50,"[1]; Aedes aegypti, larval mortality at 24 hours, in 25 mL DI water, read-out: LC50",1.34 µg/mL
same,larvicidal properties compared with natural pogostone or rotenone,[1]; words,possessed better larvicidal properties than natural pogostone; also recorded: possessed better larvicidal properties than rotenone; also recorded: performed as well as the rotenone
same,efficacy (mortality) compared with thymol,German roaches,outperformed thymol at all time points; also recorded: surpassed the efficacy of thymol at both an equal or higher concentration
same,efficacy (mortality) compared with thymol,maize weevils,outperformed thymol at all time points; also recorded: performed better than thymol applied at an equal concentration and as well as thymol applied in a 10% concentration
same,mortality compared with thymol or control,soybean aphids,performed better than thymol; also recorded: significantly more effective at killing soybean aphids compared to thymol or a control
same,mortality compared with thymol or control,two-spotted spider mites,performed better than thymol
same,mortality at 500 µg/mL,"[2]; Aedes aegypti, 24 h, read-out: 24-hr percentage mortality",11.2%
same,percentage mortality at 24 hour,"[2]; chlorfenapyr 75 ug/mL, Formula 13 500 ug/mL, alone or combined, words",very low mortality
same,SR (synergistic ratio),adult house flies; LD50 alone versus in combination with PBO,17.8
same,LD50,"adult house flies; topical, derivative alone or in combination with PBO",5950 µg/g
same,phytotoxicity in foxtail,"[3]; 40 mL of 0.5% soil drench, FIG. 12, words",significant phytotoxicity
same,% mortality,[3]; 2 weeks after soil drench - 40 mL of 0.5% solution,100%
same,% mortality,[3]; 3 days after soil drench - 40 mL of 0.5% solution,50%
same,phytotoxicity in dandelion,[4],little phytotoxicity
same,toxicity compared with thymol,[5],"more toxic than a commonly used natural insecticide, thymol"
same,LD50 (ug/g fly),house flies,5950 ug/g fly
